Results: the supplement of paper PMC10307832

Experiments:
Assay in all cases: relative viability (nuclei count vs DMSO), 5 days (fraction); higher = more cells survive
Veliparib + OSI-027 = compound: C[C@]1(c2nc3c(C(N)=O)cccc3[nH]2)CCCN1 [Veliparib] + COc1cccc2cc(-c3nc([C@H]4CC[C@H](C(=O)O)CC4)n4ncnc(N)c34)[nH]c12 [OSI-027] (partner 0.5 µM)
Outline: (§1)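 Lung cancer cell lines, seeded in 1536-well plates, were treated the following day by pin tool with a single drug or with five library-drug doses (not always all listed) in √10 steps on top of a fixed anchor-drug dose. Cells were fixed and nuclei stained in one step after 5 days, and nuclei were counted. Relative viability is the nuclei count for treated wells divided by that for vehicle wells, reported as medians of duplicate plates.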

[1] = compound: COC1=CC=C(C=C1)CN2C=CC3=C2C=C(C=C3)C(=O)NO + COc1cccc2cc(-c3nc([C@H]4CC[C@H](C(=O)O)CC4)n4ncnc(N)c34)[nH]c12 [OSI-027] (partner 0.5 µM)
Outline: as §1

[2] = compound: COC1=CC=C(C=C1)CN2C=CC3=C2C=C(C=C3)C(=O)NO + Nc1ncn([C@H]2C[C@H](O)[C@@H](CO)O2)c(=O)n1 [Decitabine] (partner 2 µM)
Outline: as §1

[3] = compound: COC1=CC=C(C=C1)CN2C=CC3=C2C=C(C=C3)C(=O)NO + C[C@@H](Oc1cc(-c2cnn(C3CCNCC3)c2)cnc1N)c1c(Cl)ccc(F)c1Cl [Crizotinib] (partner 1 µM)
Outline: as §1

Row | Cell Line | relative viability (Veliparib + OSI-027; first compound 0.02 µM) | relative viability (Veliparib + OSI-027; first compound 0.06325 µM) | relative viability (Veliparib + OSI-027; first compound 0.2 µM) | relative viability (Veliparib + OSI-027; first compound 0.6325 µM) | relative viability (Veliparib + OSI-027; first compound 2 µM) | relative viability ([1]; first compound 0.253 µM) | relative viability ([1]; first compound 0.8 µM) | relative viability ([1]; first compound 2.53 µM) | relative viability ([1]; first compound 8 µM) | relative viability ([2]; first compound 0.253 µM) | relative viability ([2]; first compound 0.8 µM) | relative viability ([2]; first compound 2.53 µM) | relative viability ([2]; first compound 8 µM) | relative viability ([3]; first compound 0.253 µM) | relative viability ([3]; first compound 0.8 µM) | relative viability ([3]; first compound 2.53 µM) | relative viability ([3]; first compound 8 µM) | relative viability ([1]; first compound 0.08 µM) | relative viability ([2]; first compound 0.08 µM) | relative viability ([3]; first compound 0.08 µM)
1 | NCI-H358 | 0.496 | 0.715 | 0.796 | 0.611 | 0.698 | 0.861 | 0.722 | 0.739 | 0.67 | 0.221 | 0.292 | 0.197 | 0.179 | 0.645 | 0.546 | 0.597 | 0.395 |  |  | 
2 | NCI-H1792 | 0.738 | 0.708 | 0.73 | 0.707 | 0.664 | 0.811 | 0.745 | 0.802 | 0.616 | 0.619 | 0.479 | 0.469 | 0.458 | 0.905 | 1.01 | 0.918 | 0.697 | 0.722 | 0.523 | 0.969
3 | NCI-H1651 | 0.699 | 0.626 | 0.619 | 0.659 | 0.697 | 0.764 | 0.758 | 0.622 | 0.627 | 0.52 | 0.616 | 0.566 | 0.579 | 0.928 | 0.859 | 0.82 | 0.826 | 0.682 | 0.584 | 0.853
4 | LOU-NH91 | 0.716 | 0.669 | 0.688 | 0.726 | 0.74 | 0.699 | 0.729 | 0.749 | 0.709 | 0.828 | 0.831 | 0.851 | 0.824 | 0.738 | 0.752 | 0.763 | 0.704 | 0.761 |  | 0.693
5 | COR-L23 | 0.707 | 0.738 | 0.841 | 0.57 | 0.77 | 0.829 | 0.795 | 0.772 | 0.686 | 0.465 | 0.456 | 0.407 | 0.357 | 0.77 | 0.503 | 0.574 | 0.632 | 0.647 | 0.378 | 0.499
6 | NCI-H650 | 0.436 | 0.415 | 0.543 | 0.48 | 0.55 | 0.494 | 0.52 | 0.526 | 0.438 | 0.306 | 0.359 | 0.3 | 0.296 | 0.832 | 0.68 | 0.71 | 0.656 | 0.524 | 0.298 | 0.378
7 | 201T | 0.659 | 0.58 | 0.713 | 0.759 | 0.722 | 0.827 | 0.644 |  | 0.71 | 0.867 | 0.856 | 0.863 | 0.817 | 0.999 | 1.06 | 1.08 | 0.969 | 0.869 | 0.843 | 1.02
8 | LK-2 | 0.164 | 0.204 | 0.229 | 0.263 | 0.206 | 0.289 | 0.244 | 0.195 | 0.208 | 0.303 | 0.295 | 0.296 | 0.224 | 0.256 | 0.258 | 0.255 | 0.226 |  |  | 
9 | A-427 |  | 0.414 | 0.485 | 0.456 | 0.463 | 0.44 | 0.497 | 0.492 | 0.367 |  | 0.554 | 0.584 | 0.5 | 0.857 | 1.03 | 0.828 | 0.884 |  | 0.263 | 
